Results as given in patent US20240108578A1, “COMPOSITION IN WHICH ABSORBABILITY OF POORLY ABSORBABLE DRUG IS IMPROVED” (MEDRx Co., Ltd., priority 2021, published 2024).

Experiment: Dissolution of drug in ionic liquid checked under a microscope
Type: physicochemical
Details: 1.4 mg in 0.5 mL ionic liquid formulation, heated at 65° C. for 10 minutes
Protocol: According to the method of Example 1, the preparations of Examples 1, 4 and 5 comprising Lixisenatide as poorly absorbable drug were prepared. Specifically, the ingredients were mixed in the amounts (molar ratios) shown in the above Table 1 to prepare each ionic liquid formulation. Lixisenatide (1.4 mg) was added into the prepared ionic liquid formulation (0.5 mL) and the mixture was heated and dissolved at 65° C. for 10 minutes to prepare each preparation.
When Lixisenatide was mixed with an ionic liquid and checked the state under a microscope, it was determined that Lixisenatide was dissolved because the crystal of Lixisenatide disappeared by heating.
According to the method of Example 1, the preparations of Preparation Examples 1 to 3 and 22 to 23 comprising Lixisenatide as poorly absorbable drug were prepared. Specifically, the ingredients were mixed in the amounts (molar ratios) shown in Table 2 below to prepare each ionic liquid formulation, Semaglutide (1.4 mg) was added into the prepared ionic liquid formulation (0.5 mL), and the mixture was heated and dissolved at 65° C. for 10 minutes to prepare each preparation.
When Semaglutide was mixed with an ionic liquid and checked the state under a microscope, it was determined that Semaglutide was dissolved because the crystal of Semaglutide disappeared by heating.

state of the drug mixed with an ionic liquid under a microscope | Substance
dissolved | Lixisenatide
dissolved | Semaglutide
